Test results: PMC4750852, “Synergistic Malaria Parasite Killing by Two Types of Plasmodial Surface Anion Channel Inhibitors” (PLoS ONE, 2016)
Read-outs that look alike come from different tables or passages of the source.

How the values were obtained:
P. falciparum [1] = assay: Parasite growth inhibition, SYBR Green I assay, 72 h; assay type: cell-based, Plasmodium falciparum; settings: for Improvement in growth IC50 in PGIM relative to standard medium: ratio of IC50 standard RPMI 1640-based medium to PGIM, present and prior studies [2]
Method: Efficacy of inhibitors against in vitro parasite growth was evaluated with the SYBR Green I assay for parasite nucleic acid as described. […] These cultures were then lysed (20 mM Tris, 10 mM EDTA, 0.016% saponin, 1.6% Triton X-100, pH 7.5) and incubated for 45 min with SYBR Green I nucleic acid stain at a 5000-fold dilution (Invitrogen, Waltham, MA). The mean fluorescence of replicate wells (excitation, 485 nm; emission, 528 nm) was used to quantify parasite DNA content and growth after normalization to in-plate controls with and without 20 μM chloroquine (100 and 0% growth inhibition, respectively).

[2] = test system: plasmodial surface anion channel (PSAC), primary transport; assay: Osmotic lysis kinetics, primary transport (sorbitol / alanine uptake) in infected erythrocytes; assay type: cell-based, Plasmodium falciparum
Method: (§1) Enriched cells were washed in HBS (150 mM NaCl, 20 mM Na-HEPES, 0.1 mg/mL BSA, pH 7.5) and used for continuous tracking of osmotic lysis in permeant solutes as described. PSAC-mediated uptake was initiated by resuspension of cells in osmotic lysis solutions containing 20 mM Na-HEPES, 0.1 mg/mL BSA with permeant solute or salt added at 280–290 mOsm; where present, inhibitors were added from concentrated stocks in DMSO. Osmotic swelling and lysis at 37°C was then kinetically tracked by recording the transmittance of 700 nm light through the 1 mL cell suspension (Beckman Coulter spectrophotometer, Indianapolis, IN). Regular manual resuspension was used to minimize the effects of cell settling. Solute permeability was calculated using locally developed script as described. The data are presented with normalization to inhibitor-free controls included in each experiment.

[3] = test system: plasmodial surface anion channel (PSAC), residual transport; assay: Osmotic lysis kinetics, residual PhTMA+ transport in infected erythrocytes (with a primary component inhibitor present); assay type: cell-based, Plasmodium falciparum
Method: as §1

P. falciparum [4] = assay: Fixed-ratio combination growth inhibition, isobologram analysis; assay type: cell-based, Plasmodium falciparum; settings: combination of 0.82 μM cpd 1 and 0.35 μM PRT1-20
Method: Efficacy of inhibitors against in vitro parasite growth was evaluated with the SYBR Green I assay for parasite nucleic acid as described. […] These cultures were then lysed (20 mM Tris, 10 mM EDTA, 0.016% saponin, 1.6% Triton X-100, pH 7.5) and incubated for 45 min with SYBR Green I nucleic acid stain at a 5000-fold dilution (Invitrogen, Waltham, MA). The mean fluorescence of replicate wells (excitation, 485 nm; emission, 528 nm) was used to quantify parasite DNA content and growth after normalization to in-plate controls with and without 20 μM chloroquine (100 and 0% growth inhibition, respectively). Growth inhibition resulting from combinations of PSAC inhibitors was similarly evaluated using fixed ratios of the two compounds [28]. For each experiment, […] of the two inhibitors (10:0, 9:1, …, 1:9, 0:10) were prepared based on the optimal concentrations of each in isolated growth inhibition dose responses. For each ratio, serial dilutions were used to generate dose responses and permit calculation of IC50 values by interpolation; in each experiment, matched dose responses were included for each compound in isolation. […] For each inhibitor combination, synergistic action was quantified using the ∑FIC50 (sum of fractional inhibitor concentrations producing 50% block); values of this parameter below 0.7 indicate strong synergistic action.

[5] = test system: P. knowlesi channel (PSAC); assay: Osmotic lysis kinetics in rhesus erythrocytes infected with P. knowlesi; assay type: cell-based; settings: 3 μM inhibitor with 200 μM furosemide
Method: as §1

[6] = test system: plasmodial surface anion channel (PSAC), residual transport; assay: Osmotic lysis kinetics, residual proline transport with 200 μM furosemide; assay type: cell-based, Plasmodium falciparum; settings: added to 200 μM furosemide; maximal inhibition less than with PhTMA+
Method: as §1, with “Transport measurements used synchronous trophozoite-stage infected erythrocytes enriched from P. falciparum cultures by Percoll/sorbitol separation to > 95% parasitemia. Enriched” for “Enriched”

## CCCCOc1ccc(C(=O)Nc2ccc(-c3nn4c(C)nnc4s3)cc2)cc1 [PRT1-20]
P. falciparum [1]; applied individually, standard RPMI-1640 based media
  Parasite growth inhibition, single compound: low micromolar concentrations
[2]; sorbitol without furosemide, dose response
  Action against the primary transport component compared to PRT-1: significantly reduced action
[3]; PhTMA+ with 200 μM furosemide, dose response
  Activity against residual PhTMA+ transport compared to PRT-1: improved activity
P. falciparum [4]
  Concentration in the combination as share of the compound's single drug IC50: approximately 10%

## Cc1ccc(C)c(N2CCN(S(=O)(=O)c3ccc(-c4ccc(=O)[nH]n4)s3)CC2)c1 [ISG-21, reference compound]
P. falciparum [1]; PGIM
  IC50: 17.3 ± 1 nM
P. falciparum [1]; PGIM with isoleucine increased to 34 μM
  IC50: 1250 ± 100 nM
P. falciparum [1]
  Improvement in growth IC50 in PGIM relative to standard medium: significantly improved activity in PGIM
[2]; 100 nM ISG-21, 2 μM TP-52, residual uptake of PhTMA+ remains
  Effect on sorbitol uptake at selected concentration: abolish sorbitol uptake
[3]; comparison of K0.5 values, PhTMA+ + 200 μM furosemide vs sorbitol
  Fold less effective against residual PhTMA+ transport than against sorbitol uptake: up to 3000 fold

## CCOc1ccc(C(=O)Nc2ccc(-c3nn4c(C)nnc4s3)cc2)cc1 [PRT-1]
P. falciparum [1]
  Improvement in growth IC50 in PGIM relative to standard medium: did not show measurable changes in efficacy in PGIM
[2]; sorbitol without furosemide, mean ± S.E.M., read-out: K0.5 against sorbitol uptake (primary channel route)
  IC50: 590 ± 43 nM
[3]; PhTMA-Cl plus 100 nM ISG-21, read-out: K0.5 for block of residual PhTMA+ transport
  IC50: 44 nM
[3]; PhTMA-Cl plus 2 μM TP-52, read-out: K0.5 for block of residual PhTMA+ transport
  IC50: 56 nM
[3]; in combination with 200 μM furosemide, mean ± S.E.M., read-out: K0.5 for block of residual PhTMA+ uptake
  IC50: 190 ± 3 nM
[5]
  Effect on residual PhTMA+ transport via the P. knowlesi channel: inhibit
[6]
  Effect on residual proline transport: clearly reduced proline transport further

## O=C(COc1ccc2ccccc2c1)Nc1cccc(-c2nc3ncccc3o2)c1 [PRT-3]
P. falciparum [1]
  Improvement in growth IC50 in PGIM relative to standard medium: did not show measurable changes in efficacy in PGIM
[5]
  Effect on residual PhTMA+ transport via the P. knowlesi channel: inhibit
